Data from US6706663B2, “Herbicidal 3-heterocyclic substituted benzisothiazole and benzisoxazole compounds” (Wyeth, priority 2000, dated 2004).

Columns and labels:
ZEAMX (Corn, Field) = experiment: Postemergence herbicidal evaluation; assay type: in vivo, Zea mays, L.; conditions: postemergence
In short: (§1)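 Seedlings grown about two weeks in flats, sprayed, then kept under standard greenhouse care. Rated visually 4–5 weeks after treatment on a 0–9 scale (stand, vigour, malformation, size, chlorosis, overall appearance) relative to untreated control; repeat tests averaged.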

GALAP (Galium aparine) = experiment: Preemergence herbicidal evaluation; assay type: in vivo; conditions: rated 4-5 weeks after treatment
In short: (§2)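 Visual 0–9 rating versus control (stand, vigor, malformation, size, chlorosis, overall appearance), scored four to five weeks post-treatment. Preemergence spray of aqueous acetone solution onto freshly seeded soil cups; plants grown under conventional greenhouse care.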

[1] = test system: IPOHE (Ipomoea hederacea); experiment: Postemergence herbicidal evaluation; assay type: in vivo, (L.) Jacq.; conditions: postemergence
In short: as §1

[2] = test system: MOOVA (Monochoria vaginalis); experiment: Flooded paddy, preemergence weed control; assay type: in vivo, Presl.; conditions: rated 3-4 weeks after treatment, 0-9 rating scale
In short: (§3)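 Flooded silt loam pots, seeds in upper 0.5 cm, water held 1.5–3 cm deep; greenhouse; visual 0-9 score vs control.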

ORYSAT (Rice, Tebonnet) [3] = experiment: Preemergence herbicidal evaluation; assay type: in vivo, Oryza sativa, (L.) Tebonnet; conditions: rated 4-5 weeks after treatment
[4] = test system: ECHCG (Echinochloa crus-galli); experiment: Postemergence herbicidal evaluation; assay type: in vivo, (L.) Beau; conditions: postemergence
In short: as §1

[5] = test system: CASOB (Cassia obtusifolia); experiment: Preemergence herbicidal evaluation; assay type: in vivo, L.; conditions: rated 4-5 weeks after treatment
In short: as §2

[6] = test system: AMBEL (Ambrosia artemisifolia); experiment: Preemergence herbicidal evaluation; assay type: in vivo, L.; conditions: rated 4-5 weeks after treatment
In short: as §2

[7] = test system: CHEAL (Chenopodium album); experiment: Preemergence herbicidal evaluation; assay type: in vivo, L.; conditions: rated 4-5 weeks after treatment
In short: as §2

[8] = test system: ECHCG (Echinochloa crus-galli); experiment: Preemergence herbicidal evaluation; assay type: in vivo, (L.) Beau; conditions: rated 4-5 weeks after treatment
In short: as §2

SETVI (Setaria viridis) [9] = experiment: Preemergence herbicidal evaluation; assay type: in vivo, (L.) Beau; conditions: rated 4-5 weeks after treatment
In short: as §2

ORYSAT (Rice, Tebonnet) [10] = experiment: Postemergence herbicidal evaluation; assay type: in vivo, Oryza sativa, (L.) Tebonnet; conditions: postemergence
In short: as §1

[11] = test system: GLXMAW (Soybean, Williams); experiment: Postemergence herbicidal evaluation; assay type: in vivo, Glycine max, (L.) Merr. cv Williams; conditions: postemergence
In short: as §1

[12] = test system: ECHORC (Echinochloa oryzoides); experiment: Flooded paddy, preemergence weed control; assay type: in vivo, Echinochloa oryzoides (Ard.) Fritsch.; conditions: rated 3-4 weeks after treatment, 0-9 rating scale
In short: as §3

[13] = test system: ABUTH (Abutilon theophrasti); experiment: Preemergence herbicidal evaluation; assay type: in vivo, Medic.; conditions: rated 4-5 weeks after treatment
SETVI (Setaria viridis) [14] = experiment: Postemergence herbicidal evaluation; assay type: in vivo, (L.) Beau; conditions: postemergence
In short: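 Postemergence foliar spray on two-week-old seedlings, dose equivalent to about 0.0040 to 1.000 kg/ha. Ratings use a 0-9 visual scale relative to control at four to five weeks.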

[15] = test system: TRZAWR (Wheat, Winter, cv Riband); experiment: Preemergence herbicidal evaluation; assay type: in vivo, Triticum aestivum; conditions: rated 4-5 weeks after treatment
In short: as §2

[16] = test system: TRZAWR (Wheat, Winter, cv Riband); experiment: Postemergence herbicidal evaluation; assay type: in vivo, Triticum aestivum; conditions: postemergence
In short: as §1

## Cn1c(C(F)(F)F)cc(=O)n(-c2ccc3snc(C4=NCCO4)c3c2)c1=O [Compound 75, 1-methyl-3-[3(2-oxazolin-2-yl)-1,2-benzisothiazol-5-yl]-6-(trifluoromethyl)uracil]
ZEAMX (Corn, Field); rate 0.0320 kg/ha
  ZEAMX herbicidal rating: 4.5
ZEAMX (Corn, Field); rate 0.0620 kg/ha
  ZEAMX herbicidal rating: 5.0
GALAP (Galium aparine); Rate 0.0620 kg/ha
  Preemergence herbicidal rating GALAP: 5.0
GALAP (Galium aparine); Rate 0.1250 kg/ha
  Preemergence herbicidal rating GALAP: 7.0
GALAP (Galium aparine); Rate 0.2500 kg/ha
  Preemergence herbicidal rating GALAP: 9.0
[1]; rate 0.0320 kg/ha
  IPOHE herbicidal rating: 9.0
[1]; rate 0.0620 kg/ha
  IPOHE herbicidal rating: 9.0
[2]; rate 0.0080 kg/ha
  herbicidal rating, MOOVA: 0.0
[2]; rate 0.0320 kg/ha
  herbicidal rating, MOOVA: 7.0
[2]; rate 0.1250 kg/ha
  herbicidal rating, MOOVA: 9.0
ORYSAT (Rice, Tebonnet) [3]; Rate 0.0620 kg/ha
  Preemergence herbicidal rating ORYSAT: 0.0
ORYSAT (Rice, Tebonnet) [3]; Rate 0.1250 kg/ha
  Preemergence herbicidal rating ORYSAT: 2.0
ORYSAT (Rice, Tebonnet) [3]; Rate 0.2500 kg/ha
  Preemergence herbicidal rating ORYSAT: 7.0
[4]; rate 0.0320 kg/ha
  ECHCG herbicidal rating: 3.0
[4]; rate 0.0620 kg/ha
  ECHCG herbicidal rating: 3.0
[5]; Rate 0.0620 kg/ha
  Preemergence herbicidal rating CASOB: 0.0
[5]; Rate 0.1250 kg/ha
  Preemergence herbicidal rating CASOB: 1.0
[5]; Rate 0.2500 kg/ha
  Preemergence herbicidal rating CASOB: 1.0
[6]; Rate 0.0620 kg/ha
  Preemergence herbicidal rating AMBEL: 1.0
[6]; Rate 0.1250 kg/ha
  Preemergence herbicidal rating AMBEL: 3.0
[6]; Rate 0.2500 kg/ha
  Preemergence herbicidal rating AMBEL: 7.0
[7]; Rate 0.0620 kg/ha
  Preemergence herbicidal rating CHEAL: 9.0
[7]; Rate 0.1250 kg/ha
  Preemergence herbicidal rating CHEAL: 6.0
[7]; Rate 0.2500 kg/ha
  Preemergence herbicidal rating CHEAL: 9.0
[8]; Rate 0.0620 kg/ha
  Preemergence herbicidal rating ECHCG: 0.0
[8]; Rate 0.1250 kg/ha
  Preemergence herbicidal rating ECHCG: 1.0
[8]; Rate 0.2500 kg/ha
  Preemergence herbicidal rating ECHCG: 6.0
SETVI (Setaria viridis) [9]; Rate 0.0620 kg/ha
  Preemergence herbicidal rating SETVI: 0.0
SETVI (Setaria viridis) [9]; Rate 0.1250 kg/ha
  Preemergence herbicidal rating SETVI: 1.0
SETVI (Setaria viridis) [9]; Rate 0.2500 kg/ha
  Preemergence herbicidal rating SETVI: 6.0
ORYSAT (Rice, Tebonnet) [10]; rate 0.0320 kg/ha
  ORYSAT herbicidal rating: 2.5
ORYSAT (Rice, Tebonnet) [10]; rate 0.0620 kg/ha
  ORYSAT herbicidal rating: 3.5
[11]; rate 0.0320 kg/ha
  GLXMAW herbicidal rating: 5.5
[11]; rate 0.0620 kg/ha
  GLXMAW herbicidal rating: 7.0
[12]; rate 0.0080 kg/ha
  herbicidal rating, ECHORC: 1.5
[12]; rate 0.0320 kg/ha
  herbicidal rating, ECHORC: 4.0
[12]; rate 0.1250 kg/ha
  herbicidal rating, ECHORC: 8.5
[13]; Rate 0.0620 kg/ha
  Preemergence herbicidal rating ABUTH: 1.0
[13]; Rate 0.1250 kg/ha
  Preemergence herbicidal rating ABUTH: 1.0
[13]; Rate 0.2500 kg/ha
  Preemergence herbicidal rating ABUTH: 9.0
SETVI (Setaria viridis) [14]; rate 0.0320 kg/ha
  SETVI herbicidal rating: 2.0
SETVI (Setaria viridis) [14]; rate 0.0620 kg/ha
  SETVI herbicidal rating: 4.0
[15]; Rate 0.0620 kg/ha
  Preemergence herbicidal rating TRZAWR: 0.0
[15]; Rate 0.1250 kg/ha
  Preemergence herbicidal rating TRZAWR: 2.0
[15]; Rate 0.2500 kg/ha
  Preemergence herbicidal rating TRZAWR: 7.0
[16]; rate 0.0320 kg/ha
  TRZAWR herbicidal rating: 2.0
[16]; rate 0.0620 kg/ha
  TRZAWR herbicidal rating: 3.5

## C=CC1COC(c2nsc3ccc(-n4c(=O)cc(C(F)(F)F)n(C)c4=O)cc23)O1 (stereo not shown) [Compound 76, 1-methyl-6-(trifluoromethyl)-3-[3-(4-vinyl-1,3-dioxolan-2-yl)-1,2-benzisothiazol-5-yl]uracil]
ZEAMX (Corn, Field); rate 0.0320 kg/ha
  ZEAMX herbicidal rating: 3.5
ZEAMX (Corn, Field); rate 0.0620 kg/ha
  ZEAMX herbicidal rating: 4.5
GALAP (Galium aparine); Rate 0.0620 kg/ha
  Preemergence herbicidal rating GALAP: 7.0
GALAP (Galium aparine); Rate 0.1250 kg/ha
  Preemergence herbicidal rating GALAP: 9.0
GALAP (Galium aparine); Rate 0.2500 kg/ha
  Preemergence herbicidal rating GALAP: 9.0
[1]; rate 0.0320 kg/ha
  IPOHE herbicidal rating: 7.0
[1]; rate 0.0620 kg/ha
  IPOHE herbicidal rating: 9.0
[2]; rate 0.0080 kg/ha
  herbicidal rating, MOOVA: 9.0
[2]; rate 0.0320 kg/ha
  herbicidal rating, MOOVA: 9.0
[2]; rate 0.1250 kg/ha
  herbicidal rating, MOOVA: 9.0
ORYSAT (Rice, Tebonnet) [3]; Rate 0.0620 kg/ha
  Preemergence herbicidal rating ORYSAT: 7.0
ORYSAT (Rice, Tebonnet) [3]; Rate 0.1250 kg/ha
  Preemergence herbicidal rating ORYSAT: 8.5
ORYSAT (Rice, Tebonnet) [3]; Rate 0.2500 kg/ha
  Preemergence herbicidal rating ORYSAT: 9.0
[4]; rate 0.0320 kg/ha
  ECHCG herbicidal rating: 0.0
[4]; rate 0.0620 kg/ha
  ECHCG herbicidal rating: 3.0
[5]; Rate 0.0620 kg/ha
  Preemergence herbicidal rating CASOB: 5.0
[5]; Rate 0.1250 kg/ha
  Preemergence herbicidal rating CASOB: 8.5
[5]; Rate 0.2500 kg/ha
  Preemergence herbicidal rating CASOB: 9.0
[6]; Rate 0.0620 kg/ha
  Preemergence herbicidal rating AMBEL: 9.0
[6]; Rate 0.1250 kg/ha
  Preemergence herbicidal rating AMBEL: 9.0
[6]; Rate 0.2500 kg/ha
  Preemergence herbicidal rating AMBEL: 9.0
[7]; Rate 0.0620 kg/ha
  Preemergence herbicidal rating CHEAL: 9.0
[7]; Rate 0.1250 kg/ha
  Preemergence herbicidal rating CHEAL: 9.0
[7]; Rate 0.2500 kg/ha
  Preemergence herbicidal rating CHEAL: 9.0
[8]; Rate 0.0620 kg/ha
  Preemergence herbicidal rating ECHCG: 9.0
[8]; Rate 0.1250 kg/ha
  Preemergence herbicidal rating ECHCG: 9.0
[8]; Rate 0.2500 kg/ha
  Preemergence herbicidal rating ECHCG: 9.0
SETVI (Setaria viridis) [9]; Rate 0.0620 kg/ha
  Preemergence herbicidal rating SETVI: 9.0
SETVI (Setaria viridis) [9]; Rate 0.1250 kg/ha
  Preemergence herbicidal rating SETVI: 9.0
SETVI (Setaria viridis) [9]; Rate 0.2500 kg/ha
  Preemergence herbicidal rating SETVI: 9.0
ORYSAT (Rice, Tebonnet) [10]; rate 0.0320 kg/ha
  ORYSAT herbicidal rating: 3.5
ORYSAT (Rice, Tebonnet) [10]; rate 0.0620 kg/ha
  ORYSAT herbicidal rating: 4.0
[11]; rate 0.0320 kg/ha
  GLXMAW herbicidal rating: 7.0
[11]; rate 0.0620 kg/ha
  GLXMAW herbicidal rating: 8.0
[12]; rate 0.0080 kg/ha
  herbicidal rating, ECHORC: 5.0
[12]; rate 0.0320 kg/ha
  herbicidal rating, ECHORC: 7.0
[12]; rate 0.1250 kg/ha
  herbicidal rating, ECHORC: 9.0
[13]; Rate 0.0620 kg/ha
  Preemergence herbicidal rating ABUTH: 9.0
[13]; Rate 0.1250 kg/ha
  Preemergence herbicidal rating ABUTH: 9.0
[13]; Rate 0.2500 kg/ha
  Preemergence herbicidal rating ABUTH: 9.0
SETVI (Setaria viridis) [14]; rate 0.0320 kg/ha
  SETVI herbicidal rating: 7.0
SETVI (Setaria viridis) [14]; rate 0.0620 kg/ha
  SETVI herbicidal rating: 9.0
[15]; Rate 0.0620 kg/ha
  Preemergence herbicidal rating TRZAWR: 7.0
[15]; Rate 0.1250 kg/ha
  Preemergence herbicidal rating TRZAWR: 8.0
[15]; Rate 0.2500 kg/ha
  Preemergence herbicidal rating TRZAWR: 8.0
[16]; rate 0.0320 kg/ha
  TRZAWR herbicidal rating: 3.0
[16]; rate 0.0620 kg/ha
  TRZAWR herbicidal rating: 3.5
